ChEMBL document CHEMBL5120845, “Design and synthesis of novel macrolones bridged with linkers from 11,12-positions of macrolides” (Bioorg Med Chem Lett, 2022)
Values after ≈ are worked out from the molar mass of the structure shown.

Legend:
Streptococcus pneumoniae [1] = assay: Antibacterial activity against Streptococcus pneumoniae ATCC 49619 by microbroth dilution method; format: functional
Streptococcus pneumoniae [2] = assay: Antibacterial activity against Streptococcus pneumoniae 07P390 by microbroth dilution method; format: functional
Streptococcus pneumoniae [3] = assay: Antibacterial activity against Streptococcus pneumoniae PU09 by microbroth dilution method; format: functional
Streptococcus pyogenes = assay: Antibacterial activity against Streptococcus pyogenes 12-206 by microbroth dilution method; format: functional
Staphylococcus aureus [4] = assay: Antibacterial activity against Staphylococcus aureus 15B196 by microbroth dilution method; format: functional
Staphylococcus aureus [5] = assay: Antibacterial activity against Staphylococcus aureus PU32 by microbroth dilution method; format: functional
Haemophilus influenzae = assay: Antibacterial activity against Haemophilus influenzae ATCC 49247 by microbroth dilution method; format: functional
[6] = Stability in rat liver microsomes assessed as unchanged drug level at 1 uM by LC-MS/MS analysis; format: ADME, Microsome; settings: time 60 min, read-out: Stability
[7] = Stability in rat liver microsomes assessed as unchanged drug level at 1 uM after 60 mins by LC-MS/MS analysis; format: ADME, Microsome; settings: read-out: Stability
[8] = Half life in human liver microsomes at 1 uM by LC-MS/MS analysis; format: ADME, Microsome
[9] = Intrinsic clearance in human liver microsomes at 1 uM by LC-MS/MS analysis; format: ADME, Microsome; settings: read-out: CLH
[10] = test system: Mycoplasmoides pneumoniae; assay: Antibacterial activity against erythromycin-susceptible Mycoplasma pneumoniae ATCC 29342 by microbroth dilution method; format: functional
[11] = test system: Mycoplasmoides pneumoniae; assay: Antibacterial activity against erythromycin-resistant Mycoplasma pneumoniae A2058G by microbroth dilution method; format: functional
[12] = test system: Mycoplasmoides pneumoniae; assay: Antibacterial activity against erythromycin-resistant Mycoplasma pneumoniae A2059G by microbroth dilution method; format: functional
[13] = test system: Mycoplasmoides pneumoniae; assay: Antibacterial activity against erythromycin-resistant Mycoplasma pneumoniae A2058T by microbroth dilution method; format: functional

Structure (SMILES)	MIC (Streptococcus pneumoniae [1]) [µg/mL]	MIC (Streptococcus pneumoniae [2]) [µg/mL]	MIC (Streptococcus pneumoniae [3]) [µg/mL]	MIC (Streptococcus pyogenes) [µg/mL]	MIC (Staphylococcus aureus [4]) [µg/mL]	MIC (Staphylococcus aureus [5]) [µg/mL]	MIC (Haemophilus influenzae) [µg/mL]	remaining at 1 h, 1 µM [6] [%]	remaining at 1 h, 1 µM [7] [%]	half-life at 1 µM [8] [min]	CLint scaled at 1 µM [9] [mL/min/kg]	MIC [10] [µg/mL]	MIC [11] [µg/mL]	MIC [12] [µg/mL]	MIC [13] [µg/mL]
CC[C@H]1OC(=O)[C@H](C)C(=O)[C@H](C)[C@@H](O[C@@H]2O[C@H](C)C[C@H](N(C)C)[C@H]2O)[C@](C)(OC)C[C@@H](C)C(=O)[C@H](C)[C@H]2N(CCCN3CCN(c4cc5c(cc4F)c(=O)c(C(=O)O)cn5C4CC4)CC3)C(=O)O[C@]12C	0.016 (≈ 0.0163 µM)	0.12 (≈ 0.122 µM)	1 (≈ 1.02 µM)	1 (≈ 1.02 µM)	64 (≈ 65 µM)	1 (≈ 1.02 µM)	8 (≈ 8.13 µM)	95.1	65	110	11.3	0.008 (≈ 0.00813 µM)	8 (≈ 8.13 µM)	8 (≈ 8.13 µM)	8 (≈ 8.13 µM)
CCOc1ccc2ccc(=O)oc2c1								0.695	8.69	17.8	70.2				
CC[C@H]1OC(=O)[C@H](C)C(=O)[C@H](C)[C@@H](O[C@@H]2O[C@H](C)C[C@H](N(C)C)[C@H]2O)[C@](C)(OC)C[C@@H](C)C(=O)[C@H](C)[C@H]2N(CCCCc3ccc4c(=O)c(C(=O)O)cn(C5CC5)c4c3)C(=O)O[C@]12C	≤ 0.008	2 (≈ 2.23 µM)	0.5 (≈ 0.558 µM)	0.25 (≈ 0.279 µM)	8 (≈ 8.93 µM)	1 (≈ 1.12 µM)	4 (≈ 4.46 µM)	100	35.1	39.1	31.9	0.008 (≈ 0.00893 µM)	32 (≈ 35.7 µM)	32 (≈ 35.7 µM)	16 (≈ 17.9 µM)
CC[C@H]1OC(=O)[C@H](C)C(=O)[C@H](C)[C@@H](O[C@@H]2O[C@H](C)C[C@H](N(C)C)[C@H]2O)[C@](C)(OC)C[C@@H](C)C(=O)[C@H](C)[C@H]2N(CCCCn3cnc(-c4cccnc4)c3)C(=O)O[C@]12C [TELITHROMYCIN]	0.008 (≈ 0.00985 µM)	0.06 (≈ 0.0739 µM)	1 (≈ 1.23 µM)	0.12 (≈ 0.148 µM)	64 (≈ 78.8 µM)	0.5 (≈ 0.616 µM)	4 (≈ 4.93 µM)	93.2	26.3	32.4	38.4	0.008 (≈ 0.00985 µM)	256 (≈ 315 µM)	256 (≈ 315 µM)	256 (≈ 315 µM)
CC[C@H]1OC(=O)[C@H](C)[C@@H](O[C@H]2C[C@@](C)(OC)[C@@H](O)[C@H](C)O2)[C@H](C)[C@@H](O[C@@H]2O[C@H](C)C[C@H](N(C)C)[C@H]2O)[C@](C)(OC)C[C@@H](C)C(=O)[C@H](C)[C@@H](O)[C@]1(C)O [CLARITHROMYCIN]	0.03 (≈ 0.0401 µM)	512 (≈ 685 µM)	8 (≈ 10.7 µM)	512 (≈ 685 µM)	512 (≈ 685 µM)	64 (≈ 85.6 µM)	16 (≈ 21.4 µM)								
